# Experimental data from US9796719B2, “Compounds and pharmaceutical compositions thereof for the treatment of inflammatory disorders” (GALAPAGOS NV, priority 2013, dated 2017).
# Structures can show the parent of a compound that is named as a salt.
# Target: hENPP2 (UniProtKB/SwissProt Sequence ref Q13822) (Homo sapiens (Human), UniProt Q13822)
# Test: LPC hENPP2 assay (choline release, LPC as substrate)
# Assay type: biochemical
# Protocol: The principle of the assay consists in quantifying the released choline with an enzymatic method using choline oxidase and peroxidase. Choline oxydation by choline oxydase releases betaine and peroxide. The latter is quantified in presence of HRP that converts the peroxide detection agent TOOS and 4-aminoantipyrine into quinoneimine dye. The appearance of quinoneimine dye is measured spectrophotometrically at 555 nm and is proportional to the amount of choline released by ENPP2. Inhibition of ENPP2 will result in a decrease of the signal.
# The reaction is terminated and choline quantified by the addition of a 25 μL of a mixture containing 0.6 U/mL of choline oxidase, 0.6 U/mL of peroxydase, 1.8 mM TOOS, 1.2 mM amino-antipyrine, 20 mM EGTA (stop-developer solution) diluted in the buffer described above. […] is read on the Envision after an incubation of 30 min at room temperature (Excitation 555 nm, excitation light=70%).
row,IC50,SMILES
1,> 1000 nM,"CCc1nc2ccc(C3CCN(CC(=O)N4CC(O)C4)CC3)nn2c1N(C)c1nc(-c2ccc(F)cc2C#N)c(C)s1 [Cpd 210, 2-(2-((2-ethyl-6-(1-(2-(3-hydroxyazetidin-1-yl)-2-oxoethyl)piperidin-4-yl)imidazo[1,2-b]pyridazin-3-yl)(methyl)amino)-5-methylthiazol-4-yl)-5-fluorobenzonitrile]"
2,500 to 1000 nM,"CCc1nc2ccc(N3CCC(CO)C3)nn2c1N(C)c1nc(-c2ccc(F)cc2)c(CO)s1 (stereo not shown) [Compound 144, (1-(2-ethyl-3-((4-(4-fluorophenyl)-5-(hydroxymethyl)thiazol-2-yl)(methyl)amino)imidazo[, 2-b]pyridazin-6-yl)pyrrolidin-3-yl)methanol]"
3,> 1000 nM,"CCc1nc2ccc(N3CCC(c4ccccc4)CC3)nn2c1N(C)c1nc(-c2ccc(F)cc2)cs1 [Cpd 113, N-(2-ethyl-6-(4-phenylpiperidin-1-yl)imidazo[1,2-b]pyridazin-3-yl)-4-(4-fluorophenyl)-N-methylthiazol-2-amine]"
4,> 1000 nM,"CCc1nc2ccc(N3CCC(OC=O)C3)nn2c1N(C)c1nc(-c2ccc(F)cc2)cs1 (stereo not shown) [Compound 130, 1-(2-ethyl-3-((4-(4-fluorophenyl)thiazol-2-yl)(methyl)amino)imidazo[1,2-b]pyridazin-6-yl)pyrrolidin-3-yl formate]"
5,0.01 to 100 nM,"CCc1nc2ccc(N3CCC4(CCN(C(C)=O)C4)C3)nn2c1N(C)c1nc(-c2ccc(F)cc2)c(C#N)s1 (stereo not shown) [Cpd 167, 2-((6-(7-acetoyl-2,7-diazaspiro[4.4]nonan-2-yl)-2-ethylimidazo[1,2-b]pyridazin-3-yl)(methyl)amino)-4-(4-fluorophenyl) thiazole-5-carbonitrile]"
6,100 to 500 nM,"CCc1nc2ccc(N3CCCC4(CNC(=O)O4)C3)nn2c1N(C)c1nc(-c2ccc(F)cc2)c(C#N)s1 (stereo not shown) [Cpd 162, 2-((2-ethyl-6-(2-oxo-1-oxa-3,7-diazaspiro[4.5]decan-7-yl)imidazo [1,2-b]pyridazin-3-yl)(methyl)amino)-4-(4-fluorophenyl) thiazole-5-carbonitrile]"
7,0.01 to 100 nM,CCc1nc2ccc(N3C[C@H](O)[C@@H](N4CCOCC4)C3)nn2c1N(C)c1nc(-c2ccc(F)cc2)c(C#N)s1 [Cpd 184]
8,> 1000 nM,"CCOC(=O)NCCN1CCN(c2ccc3nc(CC)c(N(C)c4nc(-c5ccc(F)cc5)cs4)n3n2)CC1 [Cpd 58, ethyl 2-(4-(2-ethyl-3-((4-(4-fluorophenyl)thiazol-2-yl)(methyl)amino)imidazo[1,2-b]pyridazin-6-yl)piperazin-1-yl)ethylcarbamate]"
9,500 to 1000 nM,"CCc1nc2ccc(N3CCC(CNC(=O)C4CCOCC4)CC3)nn2c1N(C)c1nc(-c2ccc(F)cc2)cs1 [Cpd 107, N-((1-(2-ethyl-3-((4-(4-fluorophenyl)thiazol-2-yl)(methyl)amino)imidazo[1,2-b]pyridazin-6-yl)piperidin-4-yl)methyl) tetrahydro-2H-pyran-4-carboxamide]"
10,> 1000 nM,"CCc1nc2ccc(N3CCC(O)C3)nn2c1N(C)c1nc(-c2ccc(F)cc2)c(CO)s1 (stereo not shown) [Cpd 185, 1-(2-ethyl-3-((4-(4-fluorophenyl)-5-(hydroxymethyl)thiazol-2-yl)(methyl)amino)imidazo[1,2-b]pyridazin-6-yl)pyrrolidin-3-ol]"
11,> 1000 nM,"CCc1nc2ccc(N3CCC(NC(=O)C4(C)COC4)CC3)nn2c1N(C)c1nc(-c2ccc(F)cc2)cs1 [Cpd 86, N-(1-(2-ethyl-3-((4-(4-fluorophenyl)thiazol-2-yl)(methyl)amino)imidazo[1,2-b]pyridazin-6-yl)piperidin-4-yl)-3-methyloxetane-3-carboxamide]"
12,0.01 to 100 nM,"CCc1nc2ccc(N3CCC(N4CCN(C(C)=O)CC4)C3)nn2c1N(C)c1nc(-c2ccc(F)cc2)c(C#N)s1 (stereo not shown) [Cpd 180, 2-((6-(3-(4-acetoylpiperazin-1-yl)pyrrolidin-1-yl)-2-ethylimidazo[1,2-b]pyridazin-3-yl)(methyl)amino)-4-(4-fluorophenyl) thiazole-5-carbonitrile]"
13,> 1000 nM,"CCc1nc2cnc(N3CCNCC3)cn2c1N(C)c1nc(-c2ccc(F)cc2)c(C#N)s1 [Compound 1, 2-((2-ethyl-6-(piperazin-1-yl)imidazo[1,2-a]pyrazin-3-yl)(methyl)amino)-4-(4-fluorophenyl)thiazole-5-carbonitrile]"
14,> 1000 nM,"CCc1nc2ccc(N3CC(C(=O)N4CCC(O)C4)C3)nn2c1N(C)c1nc(-c2ccc(F)cc2)cs1 (stereo not shown) [Cpd 159, (1-(2-ethyl-3-((4-(4-fluorophenyl)thiazol-2-yl)(methyl)amino)imidazo[1,2-b]pyridazin-6-yl)azetidin-3-yl)(3-hydroxypyrrolidin-1-yl)methanone]"
15,> 1000 nM,"CCc1nc2ccc(N3CCCC4(CN(C)C(=O)O4)C3)nn2c1N(C)c1nc(-c2ccc(F)cc2)c(C#N)s1 (stereo not shown) [Cpd 163, 2-((2-ethyl-6-(3-methyl-2-oxo-1-oxa-3,7-diazaspiro[4.5]decan-7-yl)imidazo [1,2-b]pyridazin-3-yl)(methyl)amino)-4-(4-fluorophenyl) thiazole-5-carbonitrile]"
16,0.01 to 100 nM,"CCc1nc2ccc(N3CC(NCC(=O)N4CC(O)C4)C3)nn2c1N(C)c1nc(-c2ccc(F)cc2)c(C#N)s1 [Cpd 189, 2-((2-ethyl-6-(3-(2-(3-hydroxyazetidin-1-yl)-2-oxoethylamino)azetidin-1-yl)imidazo[1,2-b]pyridazin-3-yl)(methyl)amino)-4-(4-fluorophenyl) thiazole-5-carbonitrile]"
17,> 1000 nM,"CCc1nc2ccc(N3CCC(C(=O)N4CCOCC4)C3)nn2c1N(C)c1nc(-c2ccc(F)cc2)cs1 (stereo not shown) [Cpd 141, (1-(2-ethyl-3-((4-(4-fluorophenyl)thiazol-2-yl)(methyl)amino)imidazo[1,2-b]pyridazin-6-yl)pyrrolidin-3-yl)(morpholino) methanone]"
18,100 to 500 nM,"CCc1nc2ccc(N3CCC4(CCN(C(=O)OC(C)(C)C)C4)C3)nn2c1N(C)c1nc(-c2ccc(F)cc2)c(C#N)s1 (stereo not shown) [Cpd 165, tert-butyl 7-(3-((5-cyano-4-(4-fluorophenyl)thiazol-2-yl)(methyl)amino)-2-ethylimidazo[1,2-b]pyridazin-6-yl)-2,7-diazaspiro[4.4] nonane-2-carboxylate]"
19,100 to 500 nM,"CCc1nc2ccc(C3CCN(CC(=O)N4CC(O)C4)CC3)nn2c1N(C)c1nc(-c2ccc(F)cc2C#N)ns1 [Cpd 220, 2-(5-((2-ethyl-6-(1-(2-(3-hydroxyazetidin-1-yl)-2-oxoethyl)piperidin-4-yl)imidazo[1,2-b]pyridazin-3-yl)(methyl)amino)-1,2,4-thiadiazol-3-yl)-5-fluorobenzonitrile]"
20,> 1000 nM,"CCc1nc2ccc(N3CCC(N(C)C)CC3)nn2c1N(C)c1nc(-c2ccc(F)cc2)cs1 [Cpd 80, N-(6-(4-(dimethylamino)piperidin-1-yl)-2-ethylimidazo[1,2-b]pyridazin-3-yl)-4-(4-fluorophenyl)-N-methylthiazol-2-amine]"
21,500 to 1000 nM,"CCc1nc2ccc(N3CCC(NCC(=O)OC)C3)nn2c1N(C)c1nc(-c2ccc(F)cc2)cs1 (stereo not shown) [Cpd 135, methyl 2-(1-(2-ethyl-3-((4-(4-fluorophenyl)thiazol-2-yl)(methyl)amino)imidazo[1,2-b]pyridazin-6-yl)pyrrolidin-3-ylamino)acetate]"
22,> 1000 nM,"CCc1nc2ccc(N3CCC(NC(=O)CO)C3)nn2c1N(C)c1nc(-c2ccc(F)cc2)cs1 (stereo not shown) [Compound 136, N-(1-(2-ethyl-3-((4-(4-fluorophenyl)thiazol-2-yl)(methyl)amino)imidazo[1,2-b]pyridazin-6-yl)pyrrolidin-3-yl)-2-hydroxyacetamide]"
23,100 to 500 nM,"CCc1nc2ccc(C3CCN(CC(=O)N(C)C)CC3)nn2c1N(C)c1nc(-c2ccc(F)cc2C#N)cs1 [Cpd 208, 2-(4-(3-((4-(2-cyano-4-fluorophenyl)thiazol-2-yl)(methyl)amino)-2-ethylimidazo[1,2-b]pyridazin-6-yl)piperidin-1-yl)-N,N-dimethylacetamide]"
24,> 1000 nM,"CCc1nc2ccc(N3CCN4C(=O)COC[C@@H]4C3)nn2c1N(C)c1nc(-c2ccc(F)cc2)cs1 [Compound 66, (S)-8-(2-ethyl-3-((4-(4-fluorophenyl)thiazol-2-yl)(methyl)amino)imidazo[1,2-b]pyridazin-6-yl)hexahydropyrazino[2,1-c][1,4]oxazin-4(1H)-one]"
25,> 1000 nM,"CCc1nc2ccc(N3CCN(S(C)(=O)=O)[C@H](COC)C3)nn2c1N(C)c1nc(-c2ccc(F)cc2)cs1 [Compound 62, (S)—N-(2-ethyl-6-(3-(methoxymethyl)-4-(methylsulfonyl)piperazin-1-yl)imidazo[1,2-b]pyridazin-3-yl)-4-(4-fluorophenyl)-N-methylthiazol-2-amine]"
26,100 to 500 nM,"CCc1nc2ccc(C3CCN(CC(=O)N4CC(O)C4)CC3)nn2c1N(C)c1nc(-c2ccc(F)cc2C#N)cs1 [Cpd 207, 2-(2-((2-ethyl-6-(1-(2-(3-hydroxyazetidin-1-yl)-2-oxoethyl)piperidin-4-yl)imidazo[1,2-b]pyridazin-3-yl)(methyl)amino)thiazol-4-yl)-5-fluorobenzonitrile]"
27,> 1000 nM,"CCc1nc2ccc(N3CCN(C4COC4)CC3)nn2c1N(C)c1nc(-c2ccc(F)cc2)cs1 [Compound 38, N-(2-ethyl-6-(4-(oxetan-3-yl)piperazin-1-yl)imidazo[1,2-b]pyridazin-3-yl)-4-(4-fluorophenyl)-N-methylthiazol-2-amine]"
28,0.01 to 100 nM,"CCc1nc2ccc(N3CCC(O)(CNC(C)=O)C3)nn2c1N(C)c1nc(-c2ccc(F)cc2)c(C#N)s1 (stereo not shown) [Cpd 169, N-((1-(3-((5-cyano-4-(4-fluorophenyl)thiazol-2-yl)(methyl)amino)-2-ethylimidazo[1,2-b]pyridazin-6-yl)-3-hydroxypyrrolidin-3-yl)methyl)acetamide]"
